Laboratory results as given in PMC2748101, “Transcriptome analysis of the responses of Staphylococcus aureus to antimicrobial peptides and characterization of the roles of vraDE and vraSR in antimicrobial resistance” (BMC Genomics, 2009).
Values after ≈ are worked out from the molar mass of the structure shown. Values joined by “and” are separate entries in the source; they are usually repeats but may differ in a detail not shown here. Equal values may be shown once. Read-outs that look alike come from different tables or passages of the source. Where a SMILES comes first, the peptide text is derived from it. Bridges are numbered along the chain shown (N, C = ends). Where no end group is shown, it is not given here. [ ]: non-standard residue; d: D form. The star is where a group is joined. Ileψ(thiazoline)Cys = CC[C@H](C)[C@H](N)C1=N[C@H](C(=O)*)CS1; dOrn = NCCC[C@@H](N)C(=O)O

Assays:
S. aureus RN4220 [1] = assay: microbe, parasite or virus in culture; conditions: Staphylococcus aureus
ΔvraSR/ RN4220 [2] = assay: microbe, parasite or virus in culture; conditions: Staphylococcus aureus
ΔvraDE/S. aureus Newman [3] = assay: microbe, parasite or virus in culture; conditions: Staphylococcus aureus
ΔvraDE/ RN4220 [4] = assay: microbe, parasite or virus in culture; conditions: Staphylococcus aureus
ΔvraSR/S. aureus Newman [5] = assay: microbe, parasite or virus in culture; conditions: Staphylococcus aureus
S. aureus Newman [6] = system: S. aureus Newman
ΔvraSR/S. aureus Newman [7] = conditions: for Difference in MIC (increased sensitivity), ΔvraSR mutant versus wild-type / MIC: Mueller-Hinton broth; for MIC: ΔvraSR/S. aureus Newman, 16-24 h, 37°C, two-fold dilution series, performed twice; for Effect of the ΔvraSR mutation on sensitivity: MIC, 100%, 50% (LL-37, nisin, Pep5) or 25% (hBD3) Mueller-Hinton broth
ΔvraDE/ RN4220 [8] = conditions: Mueller-Hinton broth, 16-24 h, 37°C, two-fold dilution series, performed twice
ΔvraDE/S. aureus Newman [9] = conditions: Mueller-Hinton broth; for MIC: ΔvraDE/S. aureus Newman, 16-24 h, 37°C, two-fold dilution series, performed twice
S. aureus Newman [10] = assay: qRT-PCR of gene induction in treated wild-type cells; format: cell-based, Staphylococcus aureus; conditions: 10 min; for Fold induction SA0205 / Fold induction groEL / Fold induction prsA / Fold induction vraD: 5 × MIC (temporin-L-NH2 subinhibitory 2 μg/ml, pentaglycine 20 μg/ml), treated/untreated, mean of three experiments (SD)
ΔvraSR/ RN4220 [11] = conditions: Mueller-Hinton broth, 16-24 h, 37°C, two-fold dilution series, performed twice
S. aureus RN4220 [12] = conditions: Mueller-Hinton broth, 16-24 h, 37°C, two-fold dilution series, performed twice
[13] = system: wild-type S. aureus Newman; format: cell-based, Staphylococcus aureus
S. aureus Newman [14] = format: cell-based, Staphylococcus aureus
[15] = S. aureus Newman, Mueller-Hinton broth, 16-24 h, 37°C, two-fold dilution series, performed twice

## CN[C@H](CC(C)C)C(=O)N[C@H]1C(=O)N[C@@H](CC(N)=O)C(=O)N[C@H]2C(=O)N[C@H]3C(=O)N[C@H](C(=O)N[C@H](C(=O)O)c4cc(O)cc(O)c4-c4cc3ccc4O)[C@H](O)c3ccc(c(Cl)c3)Oc3cc2cc(c3O[C@@H]2O[C@H](CO)[C@@H](O)[C@H](O)[C@H]2O[C@H]2C[C@](C)(N)[C@H](O)[C@H](C)O2)Oc2ccc(cc2Cl)[C@H]1O [Vancomycin]
S. aureus RN4220 [1]
  MIC: 1 µg/mL (≈ 0.69 µM)
ΔvraSR/ RN4220 [2]
  MIC: 0.5 µg/mL (≈ 0.345 µM)
ΔvraDE/S. aureus Newman [3]
  MIC: 1 µg/mL (≈ 0.69 µM)
ΔvraDE/ RN4220 [4]
  MIC: 1 µg/mL (≈ 0.69 µM)
ΔvraSR/S. aureus Newman [5]
  MIC: 1 µg/mL (≈ 0.69 µM)
S. aureus Newman [6]
  MIC: 1 µg/mL (≈ 0.69 µM)

## CC[C@H](C)[C@H](N)C1=N[C@H](C(=O)N[C@@H](CC(C)C)C(=O)N[C@H](CCC(=O)O)C(=O)N[C@H](C(=O)N[C@H]2CCCCNC(=O)[C@H](CC(N)=O)NC(=O)[C@@H](CC(=O)O)NC(=O)[C@H](Cc3cnc[nH]3)NC(=O)[C@@H](Cc3ccccc3)NC(=O)[C@H]([C@@H](C)CC)NC(=O)[C@@H](CCCN)NC2=O)[C@@H](C)CC)CS1 [Bacitracin] ({Ileψ(thiazoline)Cys}-L[dE]IK[dOrn]I[dF]H[dD]N; lactam 4-C)
ΔvraSR/S. aureus Newman [7]
  Difference in MIC (increased sensitivity), ΔvraSR mutant versus wild-type: 4 fold
  MIC: 5 µg/mL (≈ 3.51 µM)
ΔvraDE/ RN4220 [8]
  MIC: 2.5 µg/mL (≈ 1.76 µM)
ΔvraDE/S. aureus Newman [9]
  Difference in MIC, ΔvraDE mutant versus wild-type: about 10 fold
  MIC: 2.5 µg/mL (≈ 1.76 µM)
S. aureus Newman [10]
  Fold induction SA0205: 51.4 (0.8) fold
  Fold induction groEL: 3.6 (0.1) fold
  Fold induction prsA: 27.9 (4.5) fold
  Fold induction vraD: 467.5 (15.3) fold
S. aureus Newman [10]; listed as bacitracin
  Fold induction SA0205: 30-50 fold
  Fold induction prsA: 30-50 fold
  Fold induction vraD: ~500 fold
ΔvraSR/ RN4220 [11]
  MIC: 5 µg/mL (≈ 3.51 µM)
S. aureus Newman [6]; [15]
  MIC: 20 µg/mL (≈ 14.1 µM)
S. aureus RN4220 [12]
  MIC: 20 µg/mL (≈ 14.1 µM)

## hBD3 (GIINTLQKYYCRVRGGRCAVLSCLPKEEQIGKCSTRGRKCCRRKK; UniProt P81534 23-67, looked up)
ΔvraSR/S. aureus Newman [7]
  Effect of the ΔvraSR mutation on sensitivity: did not affect the sensitivity

## CCCCCCCCCC(=O)N[C@@H](Cc1c[nH]c2ccccc12)C(=O)N[C@H](CC(N)=O)C(=O)N[C@@H](CC(=O)O)C(=O)N[C@@H]1C(=O)NCC(=O)N[C@@H](CCCN)C(=O)N[C@@H](CC(=O)O)C(=O)N[C@H](C)C(=O)N[C@@H](CC(=O)O)C(=O)NCC(=O)N[C@H](CO)C(=O)N[C@@H]([C@H](C)CC(=O)O)C(=O)N[C@@H](CC(=O)c2ccccc2N)C(=O)O[C@@H]1C [Daptomycin]
ΔvraSR/S. aureus Newman [7]
  Effect of the ΔvraSR mutation on sensitivity: did not affect the sensitivity
  MIC: 2.5 µg/mL (≈ 1.54 µM)
ΔvraDE/ RN4220 [8]
  MIC: 2.5 µg/mL (≈ 1.54 µM)
ΔvraDE/S. aureus Newman [9]
  MIC: 2.5 µg/mL (≈ 1.54 µM)
ΔvraSR/ RN4220 [11]
  MIC: 2.5 µg/mL (≈ 1.54 µM)
S. aureus Newman [6]; [15]
  MIC: 2.5 µg/mL (≈ 1.54 µM)
S. aureus RN4220 [12]
  MIC: 2.5 µg/mL (≈ 1.54 µM)

## CN(C)CCCN1c2ccccc2Sc2ccc(Cl)cc21 [chlorpromazine]
[13]
  Growth of wild-type strain in the presence of the antimicrobial: grew significantly

## Nisin: lantibiotic (ITSISLCTPGCKTGALMGCNMKTATCHCSIHVSK; also: lantibiotic, modified residues and thioether rings not given here; UniProt P13068 24-57, looked up)
ΔvraSR/S. aureus Newman [7]
  Effect of the ΔvraSR mutation on sensitivity: did not affect the sensitivity
S. aureus Newman [6]; [15]
  MIC: 6.25 µg/mL
S. aureus RN4220 [12]
  MIC: 6.25 µg/mL

## LL-37: human cathelicidin (LLGDFFRKSKEKIGKEFKRIVQRIKDFLRNLVPRTES; Antibacterial peptide LL-37; UniProt P49913 134-170, looked up)
ΔvraSR/S. aureus Newman [7]
  Effect of the ΔvraSR mutation on sensitivity: did not affect the sensitivity

## KNLRRIIRKIIHIIKKYG-NH2 [Ovispirin-1-NH2]
ΔvraSR/S. aureus Newman [7]
  MIC: 10 µg/mL
ΔvraDE/ RN4220 [8]
  MIC: 20 µg/mL
ΔvraDE/S. aureus Newman [9]
  MIC: 20 µg/mL
ΔvraSR/ RN4220 [11]
  MIC: 10 µg/mL
S. aureus Newman [6]; [15]
  MIC: 20 µg/mL
S. aureus RN4220 [12]
  MIC: 20 µg/mL

## ALWKTLLKKVLKAAAK-NH2 [Dermaseptin K4-S4(1-16)-NH2]
S. aureus Newman [14]
  Number of genes with decreased expression: 134 genes
S. aureus Newman [14]; n=3
  Fold induction SA0336: 2.2, 2.1, 2.1 fold
  Fold induction SA0342: 2.2, 2.2 fold
  Fold induction SA0358: 2.4, 2.4 fold
  Fold induction SA0428: 2.3 fold and 3.6, 2.4, 2.3 fold
  Fold induction SA0526: 2.2, 2.0 fold
  Fold induction SA0591: 2.1 fold and 3.0, 3.3, 2.1 fold
  Fold induction SA0825 (spsA): 2.0 fold and 2.6, 3.5, 2.0 fold
  Fold induction SA0826 (spsB): 2.1, 2.7, 2.0 fold
  Fold induction SA0903: 2.6 fold and 2.1, 4.1, 2.6 fold
  Fold induction SA0914: 2.3, 2.5, 2.0 fold
  Fold induction SA0962: 2.4, 2.8, 2.4 fold
  Fold induction SA1184 (citB): 2.5, 2.4, 2.0 fold
  Fold induction SA1217: 3.0, 2.4 fold
  Fold induction SA1218 (pstB): 2.9 fold
  Fold induction SA1219: 4.2 fold and 5.4, 4.2 fold
  Fold induction SA1220: 2.3, 2.1 fold
  Fold induction SA1221: 3.1, 2.8 fold
  Fold induction SA1235: 2.4, 2.1, 2.6 fold
  Fold induction SA1476: 3.3 fold and 4.2, 5.3, 3.3 fold
  Fold induction SA1477: 5.5, 6.8, 3.8 fold
  Fold induction SA1517 (citC): 3.1 fold and 4.9, 5.8, 3.1 fold
  Fold induction SA1518 (citZ): 6.0, 6.7, 3.6 fold
  Fold induction SA1549 (htrA): 2.0 fold and 2.9, 3.0, 2.0 fold
  Fold induction SA1659 (prsA): 2.9 fold and 3.2, 4.5, 2.9 fold
  Fold induction SA1700 (vraR): 3.2, 5.0, 2.8 fold
  Fold induction SA1701 (vraS): 2.5 fold and 3.9, 5.3, 2.5 fold
  Fold induction SA1702: 4.3, 5.7, 2.6 fold
  Fold induction SA1703: 3.7, 4.2, 2.1 fold
  Fold induction SA1706: 2.0, 2.0, 2.1 fold
  Fold induction SA1710: 2.2, 2.4, 2.1 fold
  Fold induction SA1820: 2.2 fold and 3.6, 3.0, 2.2 fold
  Fold induction SA1836 (groEL): 2.2 fold and 3.8, 4.3, 2.2 fold
  Fold induction SA1837 (groES): 3.2, 3.6, 2.4 fold
  Fold induction SA1858 (ilvD): 4.9, 2.5, 2.1 fold
  Fold induction SA1860: 15.7, 4.3, 2.1 fold
  Fold induction SA1863 (leuB): 9.7, 4.2, 2.2 fold
  Fold induction SA1971: 2.2, 2.5, 2.2 fold
  Fold induction SA1990: 2.2 fold and 3.4, 2.6, 2.2 fold
  Fold induction SA2113: 2.2 fold and 2.2, 3.7, 2.2 fold
  Fold induction SA2301: 2.3, 2.2, 2.1 fold
  Fold induction SA2343: 2.7 fold and 4.3, 4.3, 2.7 fold
  Fold induction SA2481: 2.1, 3.1, 2.7 fold
  Fold induction SA2493 (vraE): 3.4, 11.8, 6.2 fold
  Fold induction SAS016: 5.4 fold and 5.0, 7.4, 5.4 fold

## KNLRRIIRKIIHIIKKYG-OH [Ovispirin-1]
ΔvraSR/S. aureus Newman [7]
  Effect of the ΔvraSR mutation on sensitivity: did not affect the sensitivity
  MIC: 20 µg/mL
ΔvraDE/ RN4220 [8]
  MIC: 20 µg/mL
ΔvraDE/S. aureus Newman [9]
  MIC: 20 µg/mL
S. aureus Newman [10]
  Fold induction SA0205: 5.1 (1.0) fold
  Fold induction groEL: 2.5 (0.5) fold
  Fold induction prsA: 7.2 (1.6) fold
  Fold induction vraD: 3.7 (0.5) fold
ΔvraSR/ RN4220 [11]
  MIC: 20 µg/mL
S. aureus Newman [6]; [15]
  MIC: 20 µg/mL
S. aureus RN4220 [12]
  MIC: 20 µg/mL

## O=C(O)CN(CCOCCOCCN(CC(=O)O)CC(=O)O)CC(=O)O [EGTA]
[13]
  Growth of wild-type strain in the presence of the antimicrobial: grew significantly

## Teicoplanin
ΔvraSR/S. aureus Newman [7]
  Difference in MIC (increased sensitivity), ΔvraSR mutant versus wild-type: 4 fold
  MIC: 0.125 µg/mL
ΔvraDE/S. aureus Newman [9]
  MIC: 0.5 µg/mL
S. aureus Newman [10]
  Fold induction SA0205: 35.7 (6.9) fold
  Fold induction groEL: 3.0 (0.3) fold
  Fold induction prsA: 32.1 (4.1) fold
  Fold induction vraD: 2.5 (0.3) fold
ΔvraSR/ RN4220 [11]
  MIC: 0.06 µg/mL
S. aureus Newman [6]; [15]
  MIC: 0.5 µg/mL
S. aureus RN4220 [12]
  MIC: 0.25 µg/mL

## CO/N=C(\C(=O)N[C@@H]1C(=O)N2C(C(=O)O)=C(COC(C)=O)CS[C@H]12)c1csc(N)n1 [cefotaxime]
[13]
  Growth of wild-type strain in the presence of the antimicrobial: grew significantly

## A(D-Glu)K(D-Ala)GGGGGA(D-Glu)K(D-Ala) [Pentaglysin]
S. aureus Newman [10]; 20 μg/ml
  Induction of vraD, SA0205, prsA and groEL (in words): did not induce any of the four genes
S. aureus Newman [10]
  Fold induction SA0205: 1.3 (0.1) fold
  Fold induction groEL: 1.1 (0.0) fold
  Fold induction prsA: 1.3 (0.0) fold
  Fold induction vraD: 1.0 (0.0) fold
S. aureus Newman [6]; 20 μg/ml
  Antimicrobial activity at the concentration used: not antimicrobial

## FVQWFSKFLGRIL-NH2 [Temporin L-NH2]
ΔvraSR/S. aureus Newman [7]
  MIC: 6 µg/mL
ΔvraDE/ RN4220 [8]
  MIC: 3 µg/mL
ΔvraDE/S. aureus Newman [9]
  MIC: 6 µg/mL
ΔvraSR/ RN4220 [11]
  MIC: 3 µg/mL
S. aureus Newman [6]; [15]
  MIC: 6 µg/mL
S. aureus RN4220 [12]
  MIC: 3 µg/mL
